Experimental data: the NIST ThermoML archive (doi:10.1016/j.fluid.2013.05.012)
Values joined by “and” are separate entries in the source; they are usually repeats but may differ in a detail not shown here. Equal values may be shown once.

Conditions: 101.33 kPa, Liquid; for mass density: Vibrating tube method; for viscosity: Vibrating wire viscometry

CCCCCC[n+]1ccn(C)c1.O=S(=O)([N-]S(=O)(=O)C(F)(F)F)C(F)(F)F
Conditions | mass density [kg/m3] | viscosity
288.15 K | 1381.24 | –
293.14 K | – | 90.27 mPa·s
293.16 K | 1376.63 | –
298.16 K | 1372.04 | –
298.18 K | – | 70.9 mPa·s and 70.95 mPa·s
303.13 K | – | 56.93 mPa·s
303.15 K | 1367.46 | –
303.16 K | 1367.45 | –
308.13 K | – | 46.15 mPa·s
308.16 K | 1362.88 | –
313.09 K | – | 38.05 mPa·s
313.15 K | 1358.32 | –
318.1 K | – | 31.74 mPa·s
318.15 K | 1353.76 | –
318.16 K | 1353.77 | –
323.1 K | – | 26.73 mPa·s
323.15 K | 1349.23 | –
323.16 K | 1349.24 | –
328.15 K | 1344.72 | –

CCOS(=O)(=O)[O-].CCn1cc[n+](C)c1 [1-ethyl-3-methylimidazolium ethyl sulfate]
Conditions | mass density | viscosity [mPa·s]
288.15 K | 1245.23 kg/m3 | –
288.16 K | 1245.23 kg/m3 | –
290.64 K | 1243.55 kg/m3 | –
290.65 K | 1243.55 kg/m3 | –
293.14 K | 1241.85 kg/m3 | 128.2
293.15 K | 1241.85 kg/m3 | –
295.65 K | 1240.17 kg/m3 and 1240.15 kg/m3 | –
298.15 K | 1238.47 kg/m3 and 1238.45 kg/m3 | –
298.19 K | – | 98.87
298.2 K | – | 98.63
300.65 K | 1236.77 kg/m3 and 1236.76 kg/m3 | –
303.15 K | 1235.08 kg/m3 and 1235.06 kg/m3 | –
303.16 K | – | 77.83
305.65 K | 1233.38 kg/m3 | –
308.15 K | 1231.69 kg/m3 | –
308.19 K | – | 62.54
310.64 K | 1230.01 kg/m3 | –
310.65 K | 1230.01 kg/m3 | –
313.14 K | 1228.32 kg/m3 | 51.1
315.65 K | 1226.63 kg/m3 and 1226.64 kg/m3 | –
318.14 K | – | 42.22
318.15 K | 1224.95 kg/m3 | –
320.64 K | 1223.27 kg/m3 and 1223.28 kg/m3 | –
323.1 K | – | 35.37
323.14 K | 1221.6 kg/m3 | –
323.15 K | 1221.6 kg/m3 | –
325.64 K | 1219.92 kg/m3 | –
325.65 K | 1219.92 kg/m3 | –
328.15 K | 1218.26 kg/m3 | –

CCOS(=O)(=O)[O-].CC[n+]1cccc(C)c1 [1-ethyl-3-methylpyridinium ethylsulfate]
Conditions | mass density | viscosity [mPa·s]
293.13 K | – | 181.5
293.15 K | 1225.08 kg/m3 | –
293.16 K | 1225.08 kg/m3 | –
295.64 K | 1223.43 kg/m3 | –
295.65 K | 1223.43 kg/m3 | –
298.15 K | 1221.79 kg/m3 | –
298.16 K | 1221.8 kg/m3 | –
298.18 K | – | 133.7
298.2 K | – | 133.8
300.65 K | 1220.15 kg/m3 | –
300.66 K | 1220.15 kg/m3 | –
303.13 K | – | 102.1
303.14 K | 1218.51 kg/m3 | –
303.15 K | 1218.5 kg/m3 | –
305.64 K | 1216.85 kg/m3 | –
305.65 K | 1216.85 kg/m3 | –
308.15 K | 1215.21 kg/m3 and 1215.2 kg/m3 | –
308.16 K | – | 79.18
310.65 K | 1213.56 kg/m3 | –
310.66 K | 1213.56 kg/m3 | –
313.14 K | – | 62.73
313.15 K | 1211.91 kg/m3 | –
315.65 K | 1210.27 kg/m3 | –
315.66 K | 1210.27 kg/m3 | –
318.08 K | – | 50.65
318.15 K | 1208.63 kg/m3 and 1208.64 kg/m3 | –
320.65 K | 1207 kg/m3 | –
